The assay has as its system HCT116 cells. Put plainly: Whole transcriptome microarray of gene re-expression in drug-treated CRC cells (11 hypermethylated guide genes). It counts as cell-based, human. The protocol: Cell culture and treatment. HCT116 cells and isogenic genetic knockout derivatives were maintained as previously described (14). For drug treatments, log phase CRC cells were cultured in McCoys 5A media (Invitrogen) containing 10% BCS and 1× penicillin/streptomycin with 5 μM 5aza-deoxycytidine (DAC) (Sigma; stock solution: 1 mM in PBS) for 96 hours, replacing media and DAC every 24 hours. Cell treatment with 300 nM Trichostatin A (Sigma; stock solution: 1.5 mM dissolved in ethanol) was performed for 18 hours. Control cells underwent mock treatment in parallel with addition of equal volume of PBS or ethanol without drugs.
Microarray analysis. Total RNA was harvested from log phase cells using Triazol (Invitrogen) and the RNeasy kit (Qiagen) according to the manufacturers instructions, including a DNAase digestion step. RNA was quantified using the Nanoprop ND-100 followed by quality assessment with 2100 Bioanalyzer (Agilent Technologies). RNA concentrations for individual samples were greater than 200 ng/ul, with 28s/18s ratios greater than 2.2 and RNA integrity of 10 (10 scored as the highest). Sample amplification and labeling procedures were carried out using the Low RNA Input Fluorescent Linear Amplification Kit (Agilent Technologies) according to the manufacturers instructions. The labeled cRNA was purified using the RNeasy mini kit (Qiagen) and quantified. RNA spike-in controls (Agilent Technologies) were added to RNA samples before amplification. 0.75 microgram of samples labeled with Cy3 or Cy5 were mixed with control targets (Agilent Technologies), assembled on Oligo Microarray, hybridized, and processed according to the Agilent microarray protocol. Scanning was performed with the Agilent G2565BA microarray scanner using settings recommended by Agilent Technologies.
Data analysis. All arrays were subject to quality checks recommended by the manufacturer. […] The log ratio of red signal to green signal was calculated after background-subtraction and LoEss normalization as implemented in the limma package from Bioconductor (25,26). […]

On to `Nc1ncn([C@H]2C[C@H](O)[C@@H](CO)O2)c(=O)n1` [DAC, 5-aza-2′-deoxycytidine], for which, for the setting “5 μM DAC for 96 hours, 11 known hypermethylated, silenced guide genes”, the “guide genes increased 1.3 fold or more (total)” value is reported as 73%. In addition, where the note is “5 μM DAC for 96 hours, 11 known hypermethylated, silenced guide genes (5 of 11)”, the “guide genes increased 2-fold or more” value is recorded as 45%.

For the compound `CC(/C=C/C(=O)NO)=C\[C@@H](C)C(=O)c1ccc(N(C)C)cc1` [TSA, trichostatin A], the “response of guide gene expression to TSA” value (300 nM Trichostatin A for 18 hours, zone = expression increase <1.4 fold) was “All tested genes remained within the TSA non-responsive zone”.

The record behind these values is patent US20080221056A1, “Early Detection and Prognosis of Colon Cancers” (JOHNS HOPKINS UNIVERSITY, priority 2007, published 2008).
